Data reported in paper PMC5267425, “Identification of small molecule modulators of HIV-1 Tat and Rev protein accumulation” (Retrovirology, 2017).
“And” between values parts separate entries of the source, which are not always exact repeats. Equal entries are not always repeated.

Tested on: cellular gene expression in HeLa rtTA HIV∆Mls cells
Conditions: 9147791-treated cells, replicates

Cc1cc(NCc2cccnc2)n2ncc(-c3ccc(Cl)cc3)c2n1 [Compound 791, 3-(4-chlorophenyl)-5-methyl-N-(3-pyridinylmethyl)pyrazolo[1,5-a]pyrimidin-7-amine]
ACTN1 expression level: 70.54 and 65.87 | ADI1 expression level: 21.28 and 20.50 | AGPAT2 expression level: 26.74 and 28.83 | ALDOC expression level: 1.08 and 1.02 | ANXA5 expression level: 191.66 and 185.16 | ANXA6 expression level: 69.55 and 59.50 | AP2M1 expression level: 238.02 and 237.30 | APOBEC3B expression level: 8.21 and 6.81 | ARF1 expression level: 151.10 and 145.27 | ARHGAP11A expression level: 26.24 and 25.64 | ARPC5 expression level: 71.19 and 65.59 | ATP6V0A1 expression level: 15.83 and 16.80 | ATP8B1 expression level: 0.78 and 0.65 | B3GNT1 expression level: 9.03 and 9.24 | BAT3 expression level: 82.22 and 79.10 | BCOR expression level: 21.09 and 21.93 | BCORL1 expression level: 5.39 and 5.54 | BHLHB9 expression level: 1.05 and 1.03 | BMPR1B expression level: 0.73 and 0.81 | BST2 expression level: 245.44 and 203.71 | C1orf115 expression level: 6.22 and 6.65 | C3orf59 expression level: 1.02 and 1.00 | C5orf13 expression level: 10.12 and 9.25 | C5orf15 expression level: 25.66 and 24.81 | C6orf145 expression level: 25.69 and 26.94 | C9orf3 expression level: 5.07 and 4.02 | C9orf163 expression level: 0.72 and 0.74 | C10orf76 expression level: 6.17 and 6.53 | C10orf114 expression level: 6.12 and 7.21 | C14orf147 expression level: 24.04 and 21.03 | C19orf28 expression level: 20.85 and 20.05 | C20orf29 expression level: 8.83 and 7.98 | CALD1 expression level: 28.16 and 24.92 | CAP2 expression level: 6.21 and 6.88 | CAPN1 expression level: 47.66 and 45.36 | CASC5 expression level: 8.52 and 8.14 | CAV2 expression level: 13.23 and 12.84 | CCDC85C expression level: 13.99 and 13.05 | CCDC99 expression level: 61.28 and 55.39 | CCDC102A expression level: 2.18 and 1.83 | CCDC150 expression level: 3.18 and 3.23 | CD276 expression level: 44.64 and 46.66 | CDC42EP3 expression level: 3.11 and 2.92 | CDK1 expression level: 61.18 and 65.43 | CDKL1 expression level: 6.48 and 6.73 | CDKN2C expression level: 30.46 and 26.27 | CGN expression level: 1.21 and 1.38 | CHN1 expression level: 6.56 and 6.26 | CLPTM1L expression level: 137.08 and 134.64 | CNN2 expression level: 47.78 and 46.33 | CNNM3 expression level: 10.75 and 11.30 | COMMD1 expression level: 12.70 and 12.99 | CRTC3 expression level: 31.32 and 28.75 | CSRP2 expression level: 30.49 and 33.02 | CTNND1 expression level: 21.98 and 23.56 | CTTNBP2 expression level: 2.16 and 2.53 | CYTH3 expression level: 13.78 and 13.70 | DAB2 expression level: 15.91 and 16.84 | DAG1 expression level: 27.42 and 30.65 | DBF4B expression level: 6.80 and 6.36 | DCAF6 expression level: 12.78 and 12.38 | DDR1 expression level: 23.20 and 20.76 | DNMT3L expression level: 1.04 and 0.90 | DOCK1 expression level: 11.83 and 12.65 | DOCK8 expression level: 1.41 and 1.38 | DUSP1 expression level: 278.63 and 269.45 | DUSP8 expression level: 0.79 and 0.93 | ECT2 expression level: 33.55 and 30.42 | EMP2 expression level: 8.82 and 9.39 | EPB41L4A expression level: 4.70 and 5.12 | ERCC2 expression level: 21.00 and 19.80 | ESAM expression level: 3.07 and 3.33 | ESYT2 expression level: 32.11 and 32.37 | F2R expression level: 28.45 and 29.47 | FAM13B expression level: 9.53 and 8.84 | FAM83D expression level: 34.40 and 31.73 | FAM127A expression level: 137.05 and 133.03 | FARP1 expression level: 32.38 and 34.32 | FBXL2 expression level: 3.80 and 3.59 | FDFT1 expression level: 43.70 and 46.85 | FGFR3 expression level: 5.45 and 6.20 | FSTL1 expression level: 31.24 and 29.61 | FUBP1 expression level: 41.68 and 44.21 | FZR1 expression level: 11.76 and 10.90 | GALNT2 expression level: 52.29 and 59.07 | GATSL1 expression level: 3.56 and 3.66 | GLCCI1 expression level: 5.50 and 5.98 | GLI2 expression level: 1.61 and 1.91 | GNG10 expression level: 35.68 and 34.10 | GPR176 expression level: 6.89 and 6.58 | GTF3C1 expression level: 29.06 and 29.38 | H3F3A expression level: 242.14 and 260.31 | HACL1 expression level: 8.70 and 8.40 | HDAC1 expression level: 74.08 and 73.05 | HEG1 expression level: 6.29 and 6.77 | HIST1H3B expression level: 1.94 and 1.96 | HMGB3 expression level: 28.50 and 26.71 | HMGN3 expression level: 74.54 and 69.90 | HNRNPH2 expression level: 55.22 and 51.55 | HSPB8 expression level: 24.33 and 26.14 | ICK expression level: 4.87 and 5.19 | ID3 expression level: 119.77 and 102.82 | IDH2 expression level: 17.89 and 18.64 | IDI1 expression level: 13.51 and 16.55 | IKBIP expression level: 8.02 and 8.05 | INCENP expression level: 24.44 and 25.00 | INO80C expression level: 1.90 and 1.87 | JUB expression level: 13.13 and 12.45 | KANK2 expression level: 20.68 and 20.72 | KHDRBS1 expression level: 80.26 and 74.92 | KIF3B expression level: 14.85 and 14.03 | KIF5C expression level: 0.60 and 0.55 | KIF11 expression level: 24.10 and 21.47 | KIF18B expression level: 12.16 and 12.54 | KIF20B expression level: 12.24 and 11.00 | KIFC1 expression level: 47.71 and 45.30 | KITLG expression level: 11.50 and 12.57 | KLF9 expression level: 12.26 and 10.78 | KLHDC3 expression level: 56.38 and 53.87 | KPNA2 expression level: 179.32 and 162.46 | LAPTM4B expression level: 71.83 and 68.84 | LMO7 expression level: 19.87 and 20.69 | LRRC16A expression level: 6.80 and 7.88 | MAML2 expression level: 2.44 and 2.29 | MANF expression level: 42.22 and 45.27 | MAP3K14 expression level: 8.59 and 8.30
